Values quoted from earlier work, collected in patent US8347551B2, “Method of applying pesticides” (priority 2004, dated 2013).
Like-named read-outs stand apart in the source and are kept apart here.

Key:
[1] = test system: pest; conditions: seed treatment; dose giving sufficient control of the pest; dutch registration code no. 8672
[2] = test system: pest; conditions: seed treatment, dose giving sufficient control of the pest
[3] = test system: pest; conditions: seed treatment; dose giving sufficient control of the pest; dutch registration code no. 11455
[4] = test system: pest; conditions: seed treatment; dose giving sufficient control of the pest; dutch registration code no. 8928
[5] = test system: pest; conditions: seed treatment; dose giving sufficient control of the pest; dutch registration code no. 11492

Which “Effective Dose” value [1] does the source give for `COC(=O)Nc1nc2ccccc2[nH]1` [carbendazim] here?
The value was 1 g per kg onion seeds.

For `CCOP(=S)(OCC)Oc1nc(Cl)c(Cl)cc1Cl` [chlorpyriphos], which “Effective Dose” value ([2]; dutch registration code no. 10968) is on record?
Its value is 0.096 g per 1000 brassica seeds.

For `O=[N+]([O-])NC1=NCCN1Cc1ccc(Cl)nc1` [imidacloprid], which “Effective Dose” value [3] is on record?
Its value is 0.8 g per 1000 lettuce seeds.

Which “Effective Dose” value [4] does the source give for `CC(C)NC(=O)N1CC(=O)N(c2cc(Cl)cc(Cl)c2)C1=O` [iprodione] here?
Its value is 5 g per kg carrot seeds.

For `COCC(=O)N(c1c(C)cccc1C)[C@H](C)C(=O)OC` [metalaxyl-m], which “Effective Dose” value ([2]; dutch registration code no. 12280) is on record?
Its value is 0.175 g per kg brassica seeds.

For `CN(C)C(=S)SSC(=S)N(C)C` [thiram], which “Effective Dose” value [5] is on record?
The value was 1.6 g per kg radish seeds.
